From PMC7036097 (BioMed Research International, 2020) come the findings set out here.

T1 sequence (P27487 whole entry): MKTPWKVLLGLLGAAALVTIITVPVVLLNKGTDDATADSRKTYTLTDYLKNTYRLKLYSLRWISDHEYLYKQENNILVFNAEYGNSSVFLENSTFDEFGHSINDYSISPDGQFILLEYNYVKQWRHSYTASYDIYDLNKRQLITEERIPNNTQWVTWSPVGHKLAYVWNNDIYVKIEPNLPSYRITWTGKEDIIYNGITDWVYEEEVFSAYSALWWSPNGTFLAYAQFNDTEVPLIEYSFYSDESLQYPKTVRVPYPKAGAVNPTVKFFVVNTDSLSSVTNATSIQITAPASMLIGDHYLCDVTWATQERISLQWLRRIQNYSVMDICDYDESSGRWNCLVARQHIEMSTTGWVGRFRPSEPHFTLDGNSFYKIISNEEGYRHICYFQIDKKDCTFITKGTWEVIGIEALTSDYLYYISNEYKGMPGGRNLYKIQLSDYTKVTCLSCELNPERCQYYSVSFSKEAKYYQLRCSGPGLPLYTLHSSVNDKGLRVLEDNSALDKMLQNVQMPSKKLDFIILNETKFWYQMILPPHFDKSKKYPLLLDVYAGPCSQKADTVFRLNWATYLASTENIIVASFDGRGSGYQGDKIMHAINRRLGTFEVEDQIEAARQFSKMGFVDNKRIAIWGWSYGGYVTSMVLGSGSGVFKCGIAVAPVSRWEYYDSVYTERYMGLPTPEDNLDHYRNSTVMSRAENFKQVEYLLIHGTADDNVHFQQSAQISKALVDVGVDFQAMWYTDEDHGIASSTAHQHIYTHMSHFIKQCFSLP

The test addresses T1, DPP4 (Homo sapiens, UniProt P27487).
T1 construct: purchased Sigma
The test is described as follows: DPPIV-Glo Protease Assay (DPP4 protease inhibition assay). Format: biochemical. The conditions noted are these: in vitro. How it is done:
At the same time, the inhibitory effect of other compounds present in tea such as epigallocatechin, epicatechin gallate, epicatechin, and catechin on DPP4 activity was also determined. […] Epigallocatechin, epicatechin gallate, epicatechin, and catechin were obtained from bidepharm (Shanghai, China). Half maximal inhibitory concentration (IC50) values were determined by nonlinear regression in GraphPad Prism 6 software.
For `Oc1cc(O)c2c(c1)O[C@H](c1ccc(O)c(O)c1)[C@@H](O)C2` [catechin], the IC50 amounted to 381 µM.

Compound `Oc1cc(O)c2c(c1)O[C@H](c1ccc(O)c(O)c1)[C@H](O)C2` [epicatechin] gave an IC50 of 281 µM.

In turn, `O=C(OC1Cc2c(O)cc(O)cc2OC1c1cc(O)c(O)c(O)c1)c1cc(O)c(O)c(O)c1` (centres unmarked) [EGCG, Epigallocatechin-3-gallate] yielded an IC50 of 28.4 µM.

On to `O=C(O[C@@H]1Cc2c(O)cc(O)cc2O[C@@H]1c1ccc(O)c(O)c1)c1cc(O)c(O)c(O)c1` [epicatechin gallate], for which the IC50 worked out at 107 µM. Compared with the last compound, the IC50 is about 3.8-fold higher.

The compound `Oc1cc(O)c2c(c1)O[C@H](c1cc(O)c(O)c(O)c1)[C@H](O)C2` [epigallocatechin] showed an IC50 of 567 µM.
